{"source": "patent US12122760B2", "about": "“Compound, composition, and use thereof in preparation of drug” (CHANGSHA ZEDA MEDICAL TECH. CO., LTD, priority 2019, dated 2024)", "key": {"[1]": {"tested_on": "AR-positive VCaP cells", "assay": "Selective effects of the drug to cells (MTS; VCaP versus 293T and DU145)", "assay_type": "cell-based", "conditions": "4 days treatment, FIG. 10", "experimental": "(§1) 293T cells are AR-negative human embryonic kidney cells, DU145 cells are AR-negative prostate cancer cells, and VCaP cells are AR-positive prostate cancer cells. These three types of the cells are cultured in the 96-well plates and treated with the drugs (in the concentration gradient) respectively for 4 days. Then the inhibition of the drugs on cell proliferation are measure by MTS. Detailed process is as follows:\n(§2) The VCaP cells are cultured with 5% CSS and 1640 medium without phenol red, and inoculated in the 96-well plates, and 1×10^4 cells are added to each well. The 293T cells and the DU145 cells are cultured with 10% FBS and 1640 medium, and inoculated in the 96-well plates, and 2×10^3 cells are added to each well. The cells are incubated overnight to make the cells stick to a wall. Then the different concentrations of the drugs are added on the second day. After treatment with the drugs for 4 days, cell viability is measured by the MTS kit (Promega, USA). To each well, 10% of an MTS reagent is added, and incubation continued for 2 hours. The absorbance value at […] is then measured by the multi-functional microplate reader. The Graphpad Prism software is used to draw a curve by using the drug concentration as an abscissa and using the absorbance value of the drug treatment/the absorbance value of the blank treatment cell as an ordinate."}, "[2]": {"biological_target": "T1, AR-LBD (GST) (Rattus norvegicus, UniProt P15207)", "T1 construct": "purchased Life technologies company, USA", "T1 sequence (P15207 651-882 limits assumed)": "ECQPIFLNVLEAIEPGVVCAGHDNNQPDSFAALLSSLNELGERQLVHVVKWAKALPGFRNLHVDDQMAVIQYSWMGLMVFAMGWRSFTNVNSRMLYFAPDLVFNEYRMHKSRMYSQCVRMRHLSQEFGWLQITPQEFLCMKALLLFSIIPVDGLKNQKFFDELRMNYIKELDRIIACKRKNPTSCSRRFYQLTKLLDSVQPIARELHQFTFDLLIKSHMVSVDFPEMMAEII", "assay": "PolarScreen Androgen Receptor (AR) Competitor Assay, binding experiment of the antagonist and AR", "conditions": "fluorescence polarization, incubated 6 hours, FIG. 1; read-out: IC50 of the drug and AR-LBD binding", "source_text": "PolarScreen™ Androgen Receptor (AR) Competitor Assay, Green kit (Life technologies company, USA) is used to test the affinity of the antagonist to AR-LBD (GST). The mechanism of the experiment is that the AR-LBD is combined with a small molecule fluormone tracer (Fluormone Tracer), and an antagonist added can competitively bind with AR-LBD so as to replace the fluormone tracer, and the replaced fluormone tracer […], and the value of the fluorescence polarization is inversely proportional to the number of the replaced tracers.\nA specific process is as follows: the drug is dissolved into 500 uM by using DMSO, and then diluted to 244 nM by double dilution concentration gradients in a 96-well plate. A 10 uL of a reaction system AR-LBD+Tracer is configured in a 384-well plate and 10 uL of the drug solution is added. The positive control is 10 uL of AR-LBD+Tracer with 10 uL of DHT added. The 384-well plate is wrapped by tin foil and incubated for 6 hours in the dark. The fluorescence polarization value is read on a multi-function microplate reader. Graphpad Prism software is used to draw a drug concentration as an abscissa, and the fluorescence polarization value is used as an ordinate for drawing a curve. […] Herein, the DHT, MDV3100, and ARN509 are positive controls."}, "[3]": {"tested_on": "AR-negative cells (293T and DU145)", "assay": "Selective effects of the drug to cells (MTS), AR-negative cells", "assay_type": "cell-based, human", "conditions": "293T and DU145, 4 days treatment, FIG. 10", "experimental": "as §1, §2"}, "[4]": {"tested_on": "VCaP cells", "assay": "Inhibiting effect on VCaP cell proliferation (MTS)", "assay_type": "cell-based", "conditions": "4 days treatment, FIG. 6", "experimental": "Androgen-sensitive prostate cancer cell (VCaP cells) are cultured in a 96-well plate. The VCaP cells are able to proliferate in a medium supplemented with 10 nM of the DHT. After treating the cells with the drugs for 4 days, we measure the effects of the drugs on the proliferation of the prostate cancer cells.\nas §2, with “cultured by using” for “cultured with”, “96-well plate.” for “96-well plates, and”, “each well,” for “each well. The 293T cells”, “and” for “and the DU145 cells are cultured with 10% FBS and 1640 medium, and inoculated in the 96-well plates, and 2×10^3 cells are added to each well. The cells are”, “wall. Different” for “wall. Then the different”, “After treating the cells” for “After treatment”"}}, "data": [{"molecule": "N#Cc1ccc(N2C(=O)C3(CCC3)N(c3ccc(C(=O)NO)c(F)c3)C2=S)cc1C(F)(F)F", "note": "[Zeta 55, 4-(7-(4-cyano-3-(trifluoromethyl)phenyl)-8-oxo-6-thio-5,7-diazaspiro[3.4]octane-5-yl)-2-fluoro-N-hydroxybenzamide]", "values": [{"measurement": "proliferation inhibition effect on AR-positive VCaP cells relative to AR-negative cells (293T and DU145)", "setting": "[1]", "result": "more than 20 times"}, {"measurement": "selectivity of proliferation inhibition", "setting": "[1]", "result": "selective proliferation inhibition on the AR-positive VCaP cells"}, {"measurement": "IC50", "setting": "[2]", "result": 29.8, "unit": "µM"}, {"measurement": "cytotoxicity toward AR-negative cells", "setting": "[3]", "result": "may have low cytotoxicity toward AR-negative cells"}, {"measurement": "inhibitory effect on the VCap cell proliferation, from high to low", "setting": "[4]", "result": "Zeta55>Zeta32>Zeta33>Zeta34>Zeta57"}, {"measurement": "cell proliferation inhibitory effect compared with positive control drug MDV3100", "setting": "[4]; VCaP cells", "result": "better than that of the positive control drug MDV3100"}]}]}
